Measurements reported in US11597708B2, “Inhibitors of heat shock factors and uses thereof” (HSF Pharmaceuticals SA, priority 2016, dated 2023).

How the values were obtained:
[1] = tested on: HeLa; test: Alamar Blue viability assay; format: cell-based, human; details: for Viability of HeLa cells (Alamar Blue): 96 hours exposure, attached cells
Description: FIG. 5. (A) Viability of HeLa cell cultures mock-exposed (−) or exposed to the indicated concentrations of compounds 001, 058 or 115. (B) Viability of MM.1S cells mock-exposed (−) or exposed to the indicated concentrations of compound 115. Viability was assayed after 96 hours of exposure using an Alamar Blue assay.
FIG. 6. (A) HeLa cell cultures were mock-exposed (−) or exposed to the indicated concentrations of compound 115 for 24 (left panel) or 96 (right panel) hours. Cell viability of total cultures, floating cells and attached cells was assayed using an Alamar Blue assay. (B) HeLa cell cultures were mock-exposed (−) or exposed to the indicated concentrations of compound 115 for 15-96 hours. Trypan Blue dye exclusion was employed to determine numbers of live cells (left panel) and relative levels of necrotic cells (right panel). (C) HeLa cell cultures were mock-exposed (−) or exposed to the indicated concentrations of compound 115 for 6 and 24 h. Shown are relative levels of early apoptotic cells (annexin-positive, 7 aminoactinomycin D-negative). (D) Flow cytometric analysis of DNA of HeLa cell cultures mock-exposed (−) or exposed to the indicated concentrations of compound 115 for 6, 15 and 24 hours. Relative levels of apoptotic cells are indicated.
Cultures of HeLa cells were exposed for 96 hours to different concentrations of IHSF 001, 058 and 115, and viability was assessed using an Alamar Blue assay. It is noted that this standard assay examines attached cells only. This subject will be discussed in more detail below. […] The relative cytotoxicity of the compounds appears to parallel their respective activities as inhibitors of HSF1 function (inhibition of RLuc expression in Z74 cells). We next examined the viability of different human cancer cell lines subsequent to a 96-hour exposure to compound 115 (Table 3). HSF1 was reported as being required for optimal p21 expression and for p53-mediated cell cycle arrest in response to genotoxins. Logan, I. R. et al. (2009) Nucleic Acids Res. 37: 2962-2971. […] Cell lines of different p53 status were included in the experiments in order to find out whether sensitivity to IHSF 115 was related to p53 status. […] No effect of p53 status could be discovered. It is noted that a number of additional HSF inhibitors of the present disclosure were tested and found to effectively reduce the viability of human cancer cells.
Further studies were aimed at finding out whether IHSF-exposed cancer cells were only growth-arrested or were actually killed and, if they were killed, by what mechanism. In one type of experiment, parallel sets of HeLa cell cultures were exposed for either 24 or 96 hours to different concentrations of IHSF 115. The first set was assayed for viability by the Alamar Blue assay without prior removal of floating cells. Attached and floating cells were assayed separately in the second set; floating cells were subsequently re-plated and incubated for 72 hours without compound. […] The viability signal (in whole cultures and, more dramatically, when only attached cells were analyzed) decreased as a function of IHSF concentration. Most floating cells were incapable of re-attaching in the absence of compound (not shown); apparently, these cells had died. More profound effects were observed after 96 hours (right panel) than after 24 hours of exposure (left panel). […] Stained (necrotic) and unstained (live) cells were counted (FIG. 6B). […]

[2] = molecular target: T1, HSF1 oligomerization (Homo sapiens, UniProt Q00613); test: EGS cross-linking and anti-HSF1 western blot (HSF1 oligomerization); format: cell-based; details: extracts of exposed, heat-treated HeLa cells
T1 construct: functionally linked to an hsp70b promoter and therefore controlled by endogenous HSF1; endogenous in cells; host or cells: HeLa cells / HeLa-derived cell line Z74
Description: FIG. 3. (A) HeLa cell cultures were mock-treated (−) or exposed for 2 hours to the indicated concentrations of compounds 058 or 115 and then heat-treated (HS) at 43° C. for 30 min. Top panels: HSF1 DNA-binding activities in cell extracts were determined by EMSA. The panels show the major HSF1-HSE DNA probe complexes. Middle panels: HSF1 levels assayed by western blot (WB). GAPDH served as a loading control. Bottom panels: HSF1 homooligomerization. Aliquots of extracts were EGS-treated and then analyzed by anti-HSF1 WB. The positions of pre-stained molecular weight marker proteins (MW, in thousands) are indicated to the right. Asterisks indicate the positions of monomeric and trimeric HSF1, respectively. (B) Relative occupancy of the hspa1a promoter was assessed by chromatin immunoprecipitation assay of HeLa cell cultures mock-treated (−) or treated with compounds 058 or 115 at 12.5 μM concentrations for 2 hours and then heat-treated (HS) at 43° C. for 30 min. Chromatin fragments were immunoprecipitated using HSF1 antibodies or an F4/80 LR (control) antibody, and associated hspa1a promoter DNA was quantified by real-time PCR.
We also investigated whether the compounds were capable of interfering with HSF1 oligomerization. Aliquots of the extracts were subjected to cross-linking with EGS (ethylene glycolbis(succinimidylsuccinate)) and then re-analyzed by anti-HSF1 WB. […]

[3] = Aqueous solubility (statement); format: physicochemical

T1 sequence (Q00613 whole entry): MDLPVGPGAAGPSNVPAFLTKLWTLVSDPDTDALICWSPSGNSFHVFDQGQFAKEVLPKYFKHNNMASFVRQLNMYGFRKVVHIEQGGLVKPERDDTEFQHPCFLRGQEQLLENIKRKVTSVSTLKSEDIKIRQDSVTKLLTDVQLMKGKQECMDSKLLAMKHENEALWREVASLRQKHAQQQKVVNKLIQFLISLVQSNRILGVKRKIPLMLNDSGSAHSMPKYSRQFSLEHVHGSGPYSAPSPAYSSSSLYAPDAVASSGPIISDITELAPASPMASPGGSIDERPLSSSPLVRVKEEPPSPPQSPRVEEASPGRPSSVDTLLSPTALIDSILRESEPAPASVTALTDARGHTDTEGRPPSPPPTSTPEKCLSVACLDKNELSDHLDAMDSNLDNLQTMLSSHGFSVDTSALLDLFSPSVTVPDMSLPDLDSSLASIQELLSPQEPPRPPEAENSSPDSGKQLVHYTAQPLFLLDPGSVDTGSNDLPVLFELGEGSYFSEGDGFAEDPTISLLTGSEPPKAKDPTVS

| SMILES | Viability of HeLa cells (Alamar Blue) ([1]; different concentrations) | HSF1 oligomerization (EGS cross-linking, anti-HSF1 WB) [2] | aqueous solubility [3] | killing of HeLa cells (Alamar Blue, total, floating and attached cells) ([1]; 24 or 96 hours exposure, different concentrations) | EC50 ([1]; Homo sapiens, HeLa, Cervical, P53 Wt, 96-hour exposure) [µM] |
| --- | --- | --- | --- | --- | --- |
| CCOC(=O)/C=C/C(=O)Nc1ncc(-c2cccnc2)s1 [IHSF 058, (E)-3-(5-Pyridm-3-yl-thiazol-2-ylcarbamoyl)-acrylic acid ethyl ester] | decreased in a dose-dependent fashion | No impairment of oligomerization | limited | – | – |
| CCOC(=O)/C=C/C(=O)Nc1nccs1 [IHSF 001, (E)-ethyl 4-oxo-4-(thiazol-2-ylamino)but-2-enoate] | decreased in a dose-dependent fashion | – | – | – | – |
| CN(C(=O)/C=C/C1=NCCCO1)c1ncc(-c2cccnc2)s1 [IHSF 115, (E)-3-(5,6-Dihydro-4H-[1,3]oxazin-2-yl)-N-methyl-N-(5-pyridin-3-yl-thiazol-2-yl)-acrylamide] | decreased in a dose-dependent fashion | No impairment of oligomerization | limited | killed by IHSF 115 in a concentration- and exposure time-dependent fashion | 6.2 |
